Assay results: patent US20260193668A1, “NOVEL PEPTIDES AND USE THEREOF FOR MODULATING PROTEIN ACCUMULATION” (UNIVERSITE TOULOUSE III - PAUL SABATIER, priority 2022, published 2026)

Key:
[1] = system: Botrytis cinerea; experiment: S. lycopersicum leaves infected with B. cinerea; format: in vivo; details: tomato
From the text: (§1) (a, b) Relative area of lesions on S. lycopersicum leaves infected with B. cinerea and treated with an irrelevant peptide or cPEPjar1. (c, d) Heat stress resistance of soybean plants treated with an irrelevant peptide or cPEPsp101. (e, f) Growth (plant height) of soybean plants treated with an irrelevant peptide or a mixture of cPEPs (targeting MRB1, SHY2 and SGR1). (g, h) Leaf area of B. vulgaris plants treated with an irrelevant peptide or a mixture of cPEPs (targeting EIN2, BR11, BAK1 and WUS). (i, j) Leaf surface of A. hypochondriacus plants treated with an irrelevant peptide or a mixture of cPEPs (targeting EIN2, BR11, BAK1 and WUS).
Wild-type or mutant A. thaliana leaves were sprayed daily with 100 μM of peptide or 100 μM of the corresponding scramble version for 3 days. Six hours after the last treatment, five mature leaves per plant were inoculated with a 5 μL droplet of 2.5×10^5 spores/mL of Botrytis cinerea strain B05.10 diluted in 100 μM of peptide or its corresponding scramble version. After inoculation, plants were maintained at 100% relative humidity. Then, a 2 μL droplet of 100 μM of peptide or 100 μM of the corresponding scramble version was deposited daily on B. cinerea-infected leaves for 3 days (until symptoms appeared). Leaves were removed from the plants to determine lesion areas using the ImageJ programme. […]

[2] = system: soybean plants; experiment: Heat stress resistance of soybean plants; format: in vivo, Glycine max; details: 45° C. for 24 h
From the text: as §1
N. benthamiana plants were treated by spraying the leaves 24 h before harvesting. For Luc assays, 100 μL of MS/2 liquid medium containing the peptides was added to each well. 5 μL of luciferin was added and luciferase activity was read 30 min later using a spectrophotometer. All other assays were performed by spraying or watering the plants. To quantify the protein level induced by cPEPs in Arabidopsis, rosettes were sprayed daily with 100 μM of peptide or its control for 5 days. Leaves were harvested 6 h after the last treatment for western blot analysis. […] Chlorophyll content was measured using the SPAD chlorophylometer (Konica Minolta). Leaf area was measured using ImageJ software. […]

[3] = system: luciferase mRNA; experiment: Relative expression of the luciferase transgene by RT-qPCR; format: in vivo, Arabidopsis thaliana; details: A. thaliana expressing LUC treated with synthetic peptide
From the text: (§2) Analysis of luciferase expression in A. thaliana constitutively expressing the LUC transgene. (a) Agarose gel after PCR amplification of RNA obtained by immunoprecipitation using anti-HA magnetic beads, followed by RT-PCR, on plants treated with the indicated peptide (SC-HA: Scrambled cPEPluc-HA; Luc-HA: cPEPluc-HA). (b) Relative expression of the luciferase transgene in plants treated with the indicated peptide, quantified by RT-qPCR. (c-e) Relative quantification of LUC in plants treated with the indicated peptide. (f, g) Ratio between induction and quantification of LUC in plants treated with cPEPluc compared to plants treated with Scrambled cPEPluc, using different peptide concentrations (f) or taken at different time points (g). (h) Transcriptomic analysis of plants treated with cPEPluc-HA compared to plants treated with Scrambled cPEPluc-HA. (i) Proteomic analysis of plants treated with cPEPluc-HA compared to plants treated with Scrambled cPEPluc-HA. Protein expression was analysed by Western blots and quantified using ImageJ.
Quantification of mRNAs was performed by qRT-PCR using appropriate primer pairs selected from the sequences: SEQ ID NOs: 367 to 374. Expression levels for the controls were set at 100. The primers used for the A. euteiches assays are described in Camborde et al (New Phytol. 233:2232-2248. 2022).

[4] = system: luciferase; experiment: Luciferase activity in A. thaliana constitutively expressing the LUC transgene; format: in vivo, Arabidopsis thaliana
From the text: as §2
Medicago truncatula Gaertn cv. Jemalong genotype A17 were grown on Long Aston medium as described in Delaux P M et al (New Phytol. 2013 July; 199(1):59-65). Arabidopsis thaliana Col-0 plants were grown in soil until 4 weeks of age in a growth chamber (22/20° C., 16 h/8 h L/D, RH 80%, ~75 μmol·m^−2 s^−1). Barbarea vulgaris seeds were stratified for 24 h at 4° C. before being grown in pots in a growth chamber. Seeds of Amaranthus hypochondriacus, Glycine max and Solanum lycopersicum were sown in pots and grown in a growth chamber. […]
N. benthamiana plants were treated by spraying the leaves 24 h before harvesting. […] 5 μL of luciferin was added and luciferase activity was read 30 min later using a spectrophotometer. […] To quantify the protein level induced by cPEPs in Arabidopsis, rosettes were sprayed daily with 100 μM of peptide or its control for 5 days. […] Chlorophyll content was measured using the SPAD chlorophylometer (Konica Minolta). Leaf area was measured using ImageJ software. […]

[5] = system: luciferase; experiment: Luciferase activity in A. thaliana LUC plants with or without cycloheximide; format: in vivo, Arabidopsis thaliana; details: cycloheximide 200 μg·mL^−1, 24 h
Experimental: (§3) (a) Analysis of luciferase activity in A. thaliana plants constitutively expressing the LUC transgene and treated with Scrambled cPEPluc or cPEPluc, with or without cycloheximide. (b) Analysis of luciferase activity after in vitro transcription/translation of luciferase expressed with cPEPluc or Scrambled cPEPluc.
Arabidopsis thaliana plants comprising the LUC construct were treated by infiltrating the leaves with a solution of peptide with or without cycloheximide (200 μg·mL^−1) in MS/2 medium, 24 h before harvesting for the LUC assay.

[6] = system: luciferase; experiment: In vitro transcription/translation of luciferase (wheat germ system); format: biochemical; details: 60 min
From the text: as §3
The TnT® SP6 high-throughput wheat germ protein expression system (Promega) was used according to the manufacturer's instructions. The LUC sequence was amplified using the GoTaq Polymerase® (Promega), cPEPs or their corresponding Scramble versions were added just prior to the start of the reaction. The reaction was stopped after 60 min, after which LUC activity was measured using a plate spectrophotometer (Perkin-Elmer Victor Nivo).

[7] = 96-well assay, cPEPluc compared to Scrambled cPEPluc

cPEPjar1: cPEP targeting the tomato JAR1 protein (AFRTFEQVWE; cPEpjar1)
plant's resistance to B. cinerea [1]: improved

cPEPhsp101 (EEYRKYVEKD; cPEPhsp101) [SEQ ID NO: 408, cPEP targeting the homolog of HSP101 in soybean]
tolerance to heat stress [2]: increased

cPEPluc: complementary peptide of 10 amino acids corresponding to a 10 amino acid fragment of the luciferase protein (KRYGLNTNHR; cPEPluc)
luciferase mRNA abundance (qPCR) [3]: no effect
optimum concentration of cPEP for luciferase induction [4, 7]: 50 µM
treatment time showing the maximum effect of cPEP [4, 7]: 24 h
luciferase activity ([4]; A. thaliana LUC seedlings, exogenous peptide treatment, compared with water or non-luciferase-specific peptides): increased
effect of cPEPluc on luciferase activity in the presence of CHX [5]: inhibited
LUC activity in vitro [6]: increased
